Experiments:
[1] = Mucomyst monograph; cited from earlier work
[2] = male, human, in vivo
Text: A construction worker* fell from a height of about 8 feet, severely breaking their right ankle and wrist. (*to promote privacy and simplify description of the invention, the patient and symptoms described here are a composite of data from typical patients). Orthopedic surgery repaired the injury, followed by prolonged and painful rehabilitation. A prescription for 60 Vicodin tablets (a composition comprising acetaminophen and hydrocodone) is given routinely during such post-surgical recovery periods. Typcially, the first day 4 to 8 vicodin tablets manage pain (often in combination with sedatives and the aftereffects of surgical anesthetics).
On the second day, at least 8 Vicodin® tablets are generally required to get the same analgesic effect (Vicodin is a well known trademark, which will also be referred to herein by “vicodin”). Subsequently, it is common that more than 10 vicodin tablets per day are taken, contrary to the doctor's instructions, yet less pain relief is noted with this higher dosage. At this rate, the patient must seek a refill in only a week; often doctors refilling such prescriptions give a stern advisory about taking too many pills and the dangers of Tylenol/acetaminophen. Subsequently, the patient sought prescriptions from other physicians and took 30 Vicodin tablets each day. […]

[3] = rat, oral
Method: The effect of prophylactic administration of n-acetylcysteine (NAC) on acetaminophen hepatotoxicity can be determined in the rat. In a double-blind placebo study, four groups of rats are given one of the following oral dosings: “NAC-free” (NF), low NAC (LN), medium NAC (MN), or high NAC(HN). Then rats in all groups are administered a toxic dose of acetaminophen (1 g/kg body weight) orally. After 24 hours, animal are euthanized and assessed for hepatotoxicity by the elevation of serum transaminases and by a necrotic score based on histological examination.
In the following protocol, all rats in the study are given the LD50 dose of acetaminophen (determined by the dosage of acetaminophen that causes 50% of the test subjects to expire after a predetermined period of time). […] The study is conducted in double-blind fashion; four groups of rats are given one of the following oral dosings: “NAC-free” (NF or placebo), low NAC (LN), medium NAC (MN), or high NAC(HN). Then rats in all groups are administered a LD50 dose of acetaminophen. All animals are euthanized 3 weeks later and hepatotoxicity assessed by the elevation of serum transaminases and by a necrotic score based on histological examination. Mortality in all groups will also be followed as the added criterion.

[4] = person, 4 grams/day; cited from earlier work
[5] = rats, oral methionine 200 mg/kg/day for 14 days; cited from earlier work

Row | SMILES | large overdose that saturates glucuronide and sulfate conjugation pathways, leading to hepatic cellular necrosis [1] | destruction of liver [2] | LD50 dose of acetaminophen [3] | hepatotoxicity at recommended dose [4] | angiotoxic effects [5] | concentrations of homocysteine in serum [5]
1 | CC(=O)Nc1ccc(O)cc1 [acetaminophen, N-acetyl-p-aminophenol] | ≥ 150 mg·kg | over 90% | 0.5 g/kg of Body weight | severe hepatotoxicity | – | –
2 | CSCC[C@H](N)C(=O)O [methionine] | – | – | – | – | angiotoxic effects similar to atherosclerosis | increased
